The results in this text go back to BindingDB's records for doi:10.1016/j.ejmech.2018.01.047 (Cnrs, 2018).

The target of this assay is T1, Enoyl-[acyl-carrier-protein] reductase [NADH] (Mycobacterium tuberculosis (strain ATCC 25618 / H37Rv), UniProt P9WGR1).
T1 sequence (P9WGR1 whole entry): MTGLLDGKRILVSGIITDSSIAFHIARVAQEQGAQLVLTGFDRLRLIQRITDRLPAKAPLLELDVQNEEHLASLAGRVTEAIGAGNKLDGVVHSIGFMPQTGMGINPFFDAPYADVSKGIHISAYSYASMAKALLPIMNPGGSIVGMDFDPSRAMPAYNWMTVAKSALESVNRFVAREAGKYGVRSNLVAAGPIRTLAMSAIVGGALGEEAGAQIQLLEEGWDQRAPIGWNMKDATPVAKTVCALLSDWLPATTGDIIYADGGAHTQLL
As to the kind of experiment: Inhibition of Mycobacterium tuberculosis InhA.

By IC50 is commonly meant the concentration needed to halve the response being measured. Read a low IC50 as inhibition by little substance.

As to `CCCCCCc1ccc(Oc2ccccc2Cl)c(O)c1` [PT91], the concentration for half-maximal inhibition (IC50) is 49 nM.

`CCCCCCc1ccc(Oc2ccccc2C#N)c(O)c1` [PT119]: the IC50 stood at 236 nM.
